Conditions: Liquid, Ebulliometric method (Recirculating still)

CCO [ethanol]
Conditions | vapor or sublimation pressure [kPa]
292.33 K | 5.593
303.83 K | 10.86
311.14 K | 16.15
317.9 K | 22.84
323.09 K | 29.41
326.8 K | 35.11
330.56 K | 41.76
333.94 K | 48.61
337.18 K | 56.06
339.97 K | 63.2
342.3 K | 69.73
